Measurements as given in ChEMBL document CHEMBL1201862, “PubChem BioAssay data set” (2004).
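Cultured in 96-well plates, cells were exposed to test compound for 48 hours across five concentrations. The concentration for 50% growth inhibition is given as GI50.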 Active and inactive are the calls of the source. Cut-off read from the data, not from the text of the source: active = GI50 up to about 1.1 µM and inactive = higher. Positions of bridges follow the written chain, without caps; N, C: chain ends. Non-standard residues stand in square brackets, D forms with d. Residues, ends and D or L forms follow the SMILES beside them. *: point of attachment. PhAc = O=C(Cc1ccccc1)*

What was measured:
Test in all cases: NCI anticancer screen, dose series, 48 h
[1] = tested on: PC-3
[2] = tested on: MOLT-4
[3] = tested on: Malme-3M
[4] = tested on: SF-539
[5] = tested on: HCT-15
[6] = tested on: SW-620
[7] = tested on: DU-145
[8] = tested on: SR
[9] = tested on: IGROV-1
[10] = tested on: SF-295
[11] = tested on: OVCAR-8
[12] = tested on: UO-31
[13] = tested on: NCI-H226
[14] = tested on: OVCAR-5
[15] = tested on: SN12C
[16] = tested on: MDA-MB-435
[17] = tested on: HL-60
[18] = tested on: T47D
[19] = tested on: SK-MEL-2
[20] = tested on: SNB-75

Structure (SMILES) | GI50 [1] | GI50 [2] | GI50 [3] | GI50 [4] | GI50 [5] [µM] | GI50 [6] | GI50 [7] | GI50 [8] | GI50 [9] | GI50 [10] | GI50 [11] | GI50 [12] | GI50 [13] | GI50 [14] | GI50 [15] | GI50 [16] | GI50 [17] | GI50 [18] | GI50 [19] | GI50 [20]
O=C1Nc2ccccc2/C1=N/NC(=S)Nc1cccc(Cl)c1 | 8.02 µM (inactive) | 0.614 µM (active) | 19.9 µM (inactive) | 7 µM (inactive) | 7.64 | 4.09 µM (inactive) | 22.5 µM (inactive) | 1.73 µM (inactive) | 17.2 µM (inactive) | 4.81 µM (inactive) | 5.04 µM (inactive) | 19.5 µM (inactive) | 18 µM (inactive) | 24.5 µM (inactive) | 14.4 µM (inactive) | 17.7 µM (inactive) | 8.87 µM (inactive) | 48.9 µM (inactive) | 22 µM (inactive) | –
C=C(Br)C/N=C/N(C)C | > 100 µM (inactive) | > 100 µM (inactive) | > 100 µM (inactive) | > 100 µM (inactive) | > 100 | – | > 100 µM (inactive) | > 100 µM (inactive) | > 100 µM (inactive) | > 100 µM (inactive) | > 100 µM (inactive) | > 100 µM (inactive) | > 100 µM (inactive) | > 100 µM (inactive) | > 100 µM (inactive) | > 100 µM (inactive) | > 100 µM (inactive) | > 100 µM (inactive) | > 100 µM (inactive) | > 100 µM (inactive)
O=c1c2cc(-c3ccccc3)sc2nc2n1N=C(c1ccc(Cl)cc1)CS2 | > 100 µM (inactive) | > 100 µM (inactive) | > 100 µM (inactive) | > 100 µM (inactive) | > 100 | > 100 µM (inactive) | > 100 µM (inactive) | > 100 µM (inactive) | > 100 µM (inactive) | > 100 µM (inactive) | > 100 µM (inactive) | > 100 µM (inactive) | > 100 µM (inactive) | > 100 µM (inactive) | > 100 µM (inactive) | > 100 µM (inactive) | > 100 µM (inactive) | 57.5 µM (inactive) | – | > 100 µM (inactive)
O=c1[nH]c(N/N=C\C(=N/Nc2nc3ccccc3c(=O)[nH]2)C(O)C(O)C(O)CO)nc2ccccc12 (stereo not drawn) | > 100 µM (inactive) | > 100 µM (inactive) | – | > 100 µM (inactive) | > 100 | > 100 µM (inactive) | > 100 µM (inactive) | > 100 µM (inactive) | > 100 µM (inactive) | > 100 µM (inactive) | > 100 µM (inactive) | > 100 µM (inactive) | > 100 µM (inactive) | > 100 µM (inactive) | > 100 µM (inactive) | > 100 µM (inactive) | > 100 µM (inactive) | > 100 µM (inactive) | > 100 µM (inactive) | > 100 µM (inactive)
COc1cc2c(c(OC)c1OC)-c1ccc(SC)cc1C(O)CC2 (stereo not drawn) | < 0.01 µM (active) | < 0.01 µM (active) | 0.0132 µM (active) | < 0.01 µM (active) | < 0.01 | < 0.01 µM (active) | < 0.01 µM (active) | < 0.01 µM (active) | < 0.01 µM (active) | < 0.01 µM (active) | – | – | – | 14.6 µM (inactive) | 0.427 µM (active) | < 0.01 µM (active) | < 0.01 µM (active) | > 100 µM (inactive) | > 100 µM (inactive) | < 0.01 µM (active)
O=S(=O)(Nc1ccccc1S(=O)(=O)c1ccccc1)c1ccccc1 | 52.4 µM (inactive) | 65.8 µM (inactive) | 69.5 µM (inactive) | > 100 µM (inactive) | 50.6 | 92.3 µM (inactive) | 87.9 µM (inactive) | > 100 µM (inactive) | > 100 µM (inactive) | 94.4 µM (inactive) | 68.5 µM (inactive) | > 100 µM (inactive) | > 100 µM (inactive) | > 100 µM (inactive) | > 100 µM (inactive) | > 100 µM (inactive) | 30.8 µM (inactive) | 59.3 µM (inactive) | 64.3 µM (inactive) | > 100 µM (inactive)
Cc1ccc(S(=O)(=O)n2cc(-c3cnc(N)c(Br)n3)c3ccccc32)cc1 | 2.92 µM (inactive) | 0.977 µM (active) | – | 1.15 µM (inactive) | 1.21 | 1.04 µM (active) | 1.31 µM (inactive) | 0.764 µM (active) | 1.3 µM (inactive) | 1.95 µM (inactive) | 4.06 µM (inactive) | 4.18 µM (inactive) | 31.2 µM (inactive) | 4.39 µM (inactive) | 1.31 µM (inactive) | 0.238 µM (active) | 0.372 µM (active) | 6.76 µM (inactive) | 10.8 µM (inactive) | 1.42 µM (inactive)
COC(=O)[C@@H]1CC(C(CN)c2cn(C(=O)OC(C)(C)C)c3ccccc23)C(=O)N1C(=O)OC(C)(C)C (stereo partly drawn) | 18.4 µM (inactive) | 17.1 µM (inactive) | 22.2 µM (inactive) | 13.8 µM (inactive) | 28.1 | 50.7 µM (inactive) | 44.2 µM (inactive) | 23.1 µM (inactive) | 17.9 µM (inactive) | 21.6 µM (inactive) | 21.7 µM (inactive) | 32.4 µM (inactive) | 29.9 µM (inactive) | 27.2 µM (inactive) | 17.8 µM (inactive) | 21.5 µM (inactive) | 21.8 µM (inactive) | 44.2 µM (inactive) | 22.4 µM (inactive) | 6.31 µM (inactive)
CCCCC(=O)OC[n+]1ccc2c(C)c3[nH]c4ccccc4c3c(C)c2c1 | 0.298 µM (active) | 0.0775 µM (active) | 1.46 µM (inactive) | 0.526 µM (active) | 0.222 | 0.359 µM (active) | 1.04 µM (active) | 0.0895 µM (active) | 0.502 µM (active) | 0.676 µM (active) | 0.385 µM (active) | 0.701 µM (active) | 0.475 µM (active) | 0.525 µM (active) | 0.376 µM (active) | 0.618 µM (active) | 0.378 µM (active) | 1.01 µM (active) | 1.97 µM (inactive) | 1.28 µM (inactive)
CC(=O)O[C@@H]1C[C@@]2(C)[C@@H]3CC=C4[C@@H](C[C@H](O)C(=O)C4(C)C)[C@]3(C)C(=O)C[C@]2(C)[C@H]1[C@@](C)(O)C(=O)/C=C/C(C)(C)OC(C)=O | 1.59 µM (inactive) | 3.33 µM (inactive) | – | 1.25 µM (inactive) | 0.875 | 0.516 µM (active) | 2.03 µM (inactive) | 3.33 µM (inactive) | 0.368 µM (active) | 1.2 µM (inactive) | 1.47 µM (inactive) | 0.298 µM (active) | 0.338 µM (active) | 12.8 µM (inactive) | 0.957 µM (active) | 1.01 µM (active) | 0.746 µM (active) | 10.1 µM (inactive) | 1.26 µM (inactive) | 1.85 µM (inactive)
COC(=O)[C@]12CC[C@H]3CN(C(=O)OCc4ccccc4)[C@H]([C@H]31)[C@H](C(=O)OCC[Si](C)(C)C)N2S(=O)(=O)c1ccc(C)cc1 | 12.1 µM (inactive) | 19.5 µM (inactive) | 96.6 µM (inactive) | > 100 µM (inactive) | > 100 | > 100 µM (inactive) | > 100 µM (inactive) | 39.2 µM (inactive) | > 100 µM (inactive) | 29 µM (inactive) | > 100 µM (inactive) | 30.3 µM (inactive) | > 100 µM (inactive) | > 100 µM (inactive) | > 100 µM (inactive) | > 100 µM (inactive) | 8.85 µM (inactive) | 5.32 µM (inactive) | 96.4 µM (inactive) | –
CCN(CC)C(=O)Cn1c(-c2ccccc2)cc2ccccc21 | 22.9 µM (inactive) | 14.5 µM (inactive) | 80.4 µM (inactive) | 34.4 µM (inactive) | 43.3 | 43.2 µM (inactive) | 56 µM (inactive) | 32.5 µM (inactive) | 60.8 µM (inactive) | – | 35.9 µM (inactive) | 17.5 µM (inactive) | 42.7 µM (inactive) | 43.1 µM (inactive) | 97.3 µM (inactive) | 34.1 µM (inactive) | 47.4 µM (inactive) | 42 µM (inactive) | 72.8 µM (inactive) | 41.5 µM (inactive)
O=c1[nH]cc(/N=C/c2cc(Cl)cc(Cl)c2O)c(=O)[nH]1 | 27.8 µM (inactive) | 21.9 µM (inactive) | 20.8 µM (inactive) | 24.1 µM (inactive) | 36.4 | – | 23 µM (inactive) | 14.3 µM (inactive) | 17 µM (inactive) | 47.3 µM (inactive) | 43.1 µM (inactive) | 29.5 µM (inactive) | 23.4 µM (inactive) | 88.1 µM (inactive) | 35.2 µM (inactive) | 23.5 µM (inactive) | 13.6 µM (inactive) | 21.7 µM (inactive) | 19.3 µM (inactive) | –
N#Cc1c(-c2ccc(F)cc2)c(-c2ccc(F)cc2)nn(CCO)c1=O | 0.416 µM (active) | 0.242 µM (active) | 0.743 µM (active) | 0.198 µM (active) | 0.132 | – | 0.743 µM (active) | 0.2 µM (active) | 0.155 µM (active) | 0.224 µM (active) | – | 1.38 µM (inactive) | 1.77 µM (inactive) | 1.82 µM (inactive) | 0.27 µM (active) | 0.0641 µM (active) | 0.091 µM (active) | 2.33 µM (inactive) | < 0.01 µM (active) | 0.183 µM (active)
O=C(Cc1ccccc1)N[C@@H]1COC(=O)[C@@H]2CCCN2C(=O)[C@@H]2CCCN2C1=O (PhAc-[dS]-Pro-Pro; ester 1-C) | > 100 µM (inactive) | > 100 µM (inactive) | > 100 µM (inactive) | > 100 µM (inactive) | > 100 | > 100 µM (inactive) | > 100 µM (inactive) | > 100 µM (inactive) | > 100 µM (inactive) | > 100 µM (inactive) | > 100 µM (inactive) | – | – | > 100 µM (inactive) | > 100 µM (inactive) | > 100 µM (inactive) | > 100 µM (inactive) | > 100 µM (inactive) | > 100 µM (inactive) | 0.0254 µM (active)
